According to PMC7026418, “The kinase polypharmacology landscape of clinical PARP inhibitors” (Scientific Reports, 2020):
Where two headings read alike, the source gives them in different places. Each block holds one compound with its values, some of them ahead of it.

Experiments:
Test in all cases: biochemical
Design in all cases: DiscoveRx KINOMEscan active site-directed competition binding; percent of control kinase bound to immobilised ligand
[1] = target: T1, ABL1(F317I)-phosphorylated (Homo sapiens, UniProt P00519, F317I)
T1 construct: phosphorylated
T1 sequence (P00519 whole entry F317I): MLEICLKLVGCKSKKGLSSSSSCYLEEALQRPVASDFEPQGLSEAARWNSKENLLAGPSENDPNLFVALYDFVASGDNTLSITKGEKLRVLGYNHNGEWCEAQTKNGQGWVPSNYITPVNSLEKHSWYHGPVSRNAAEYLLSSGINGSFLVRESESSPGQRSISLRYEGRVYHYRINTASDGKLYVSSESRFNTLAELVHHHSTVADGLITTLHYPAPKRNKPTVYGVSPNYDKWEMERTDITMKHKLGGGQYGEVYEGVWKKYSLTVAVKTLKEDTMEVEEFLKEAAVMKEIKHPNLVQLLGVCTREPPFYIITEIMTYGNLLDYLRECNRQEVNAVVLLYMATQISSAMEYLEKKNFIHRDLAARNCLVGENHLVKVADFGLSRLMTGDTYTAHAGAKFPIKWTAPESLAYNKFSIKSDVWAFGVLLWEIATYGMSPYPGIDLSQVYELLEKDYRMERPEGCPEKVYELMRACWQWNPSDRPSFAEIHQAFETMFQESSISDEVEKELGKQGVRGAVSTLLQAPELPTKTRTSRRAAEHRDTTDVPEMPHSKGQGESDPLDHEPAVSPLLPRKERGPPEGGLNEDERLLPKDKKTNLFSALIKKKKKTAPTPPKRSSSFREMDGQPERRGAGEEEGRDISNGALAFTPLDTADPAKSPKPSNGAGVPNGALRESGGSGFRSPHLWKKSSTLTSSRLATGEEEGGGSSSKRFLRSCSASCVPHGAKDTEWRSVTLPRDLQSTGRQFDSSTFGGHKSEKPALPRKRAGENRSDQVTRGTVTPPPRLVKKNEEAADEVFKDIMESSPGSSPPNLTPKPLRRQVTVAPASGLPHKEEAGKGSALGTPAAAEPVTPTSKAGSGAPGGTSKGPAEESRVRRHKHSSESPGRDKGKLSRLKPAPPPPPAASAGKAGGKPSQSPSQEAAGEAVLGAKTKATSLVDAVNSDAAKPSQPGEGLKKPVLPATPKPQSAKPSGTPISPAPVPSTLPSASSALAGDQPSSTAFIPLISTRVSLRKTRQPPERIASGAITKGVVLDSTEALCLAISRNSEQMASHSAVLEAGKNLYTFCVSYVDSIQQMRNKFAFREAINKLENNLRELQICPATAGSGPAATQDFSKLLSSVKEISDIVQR

GSK3A = GSK3A (Homo sapiens, UniProt P49840)
Sequence of GSK3A (P49840 whole entry): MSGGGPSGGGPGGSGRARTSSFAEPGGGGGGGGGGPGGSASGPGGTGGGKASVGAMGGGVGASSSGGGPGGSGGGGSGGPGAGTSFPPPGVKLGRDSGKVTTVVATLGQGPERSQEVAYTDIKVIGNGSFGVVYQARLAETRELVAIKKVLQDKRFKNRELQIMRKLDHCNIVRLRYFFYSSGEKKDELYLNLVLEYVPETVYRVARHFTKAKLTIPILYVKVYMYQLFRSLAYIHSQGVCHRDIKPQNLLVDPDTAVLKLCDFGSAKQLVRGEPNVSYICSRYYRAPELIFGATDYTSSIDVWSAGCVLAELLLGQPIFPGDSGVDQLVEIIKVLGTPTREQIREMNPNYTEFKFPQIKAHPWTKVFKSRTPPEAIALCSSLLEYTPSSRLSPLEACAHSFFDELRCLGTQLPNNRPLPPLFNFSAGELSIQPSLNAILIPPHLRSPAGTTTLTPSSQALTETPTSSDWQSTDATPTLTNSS

TXK = target: T2, TXK (Homo sapiens, UniProt P42681)
T2 sequence (P42681 1-527): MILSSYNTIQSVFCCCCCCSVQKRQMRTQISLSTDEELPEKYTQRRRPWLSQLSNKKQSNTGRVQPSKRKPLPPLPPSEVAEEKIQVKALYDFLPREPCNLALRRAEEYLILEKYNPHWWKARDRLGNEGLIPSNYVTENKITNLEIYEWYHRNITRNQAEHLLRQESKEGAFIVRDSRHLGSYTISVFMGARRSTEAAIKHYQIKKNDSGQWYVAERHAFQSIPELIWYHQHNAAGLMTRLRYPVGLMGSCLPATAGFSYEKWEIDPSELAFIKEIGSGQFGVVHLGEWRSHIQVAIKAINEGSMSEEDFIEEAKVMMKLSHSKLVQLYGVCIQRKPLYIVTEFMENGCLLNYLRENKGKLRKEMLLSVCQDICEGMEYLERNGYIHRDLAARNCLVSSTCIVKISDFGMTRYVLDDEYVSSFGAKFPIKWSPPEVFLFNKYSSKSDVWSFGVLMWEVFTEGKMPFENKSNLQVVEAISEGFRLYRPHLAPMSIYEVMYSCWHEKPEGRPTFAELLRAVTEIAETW

MARK3 = MARK3 (Homo sapiens, UniProt P27448)
Sequence of MARK3 (P27448 whole entry): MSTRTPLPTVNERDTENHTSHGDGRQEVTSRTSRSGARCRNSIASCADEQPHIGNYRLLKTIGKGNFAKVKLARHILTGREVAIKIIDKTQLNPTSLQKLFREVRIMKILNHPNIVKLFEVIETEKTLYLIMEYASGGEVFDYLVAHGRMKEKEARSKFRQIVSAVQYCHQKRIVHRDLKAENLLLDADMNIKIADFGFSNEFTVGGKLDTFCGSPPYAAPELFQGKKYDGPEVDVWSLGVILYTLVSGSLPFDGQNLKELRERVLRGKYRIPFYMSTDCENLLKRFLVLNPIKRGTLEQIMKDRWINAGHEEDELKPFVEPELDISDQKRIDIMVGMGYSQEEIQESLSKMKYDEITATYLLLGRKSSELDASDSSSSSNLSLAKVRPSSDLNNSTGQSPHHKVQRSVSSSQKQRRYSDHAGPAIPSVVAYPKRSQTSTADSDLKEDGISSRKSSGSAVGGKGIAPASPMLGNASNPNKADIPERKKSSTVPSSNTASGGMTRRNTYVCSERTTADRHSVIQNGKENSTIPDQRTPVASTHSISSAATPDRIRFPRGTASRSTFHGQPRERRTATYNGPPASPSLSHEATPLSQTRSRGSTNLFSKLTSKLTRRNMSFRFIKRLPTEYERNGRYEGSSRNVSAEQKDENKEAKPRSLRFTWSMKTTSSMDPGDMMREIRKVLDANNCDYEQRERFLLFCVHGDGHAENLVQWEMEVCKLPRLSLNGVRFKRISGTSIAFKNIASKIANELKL

SIK2 = SIK2 (Homo sapiens, UniProt Q9H0K1)
Sequence of SIK2 (Q9H0K1 whole entry): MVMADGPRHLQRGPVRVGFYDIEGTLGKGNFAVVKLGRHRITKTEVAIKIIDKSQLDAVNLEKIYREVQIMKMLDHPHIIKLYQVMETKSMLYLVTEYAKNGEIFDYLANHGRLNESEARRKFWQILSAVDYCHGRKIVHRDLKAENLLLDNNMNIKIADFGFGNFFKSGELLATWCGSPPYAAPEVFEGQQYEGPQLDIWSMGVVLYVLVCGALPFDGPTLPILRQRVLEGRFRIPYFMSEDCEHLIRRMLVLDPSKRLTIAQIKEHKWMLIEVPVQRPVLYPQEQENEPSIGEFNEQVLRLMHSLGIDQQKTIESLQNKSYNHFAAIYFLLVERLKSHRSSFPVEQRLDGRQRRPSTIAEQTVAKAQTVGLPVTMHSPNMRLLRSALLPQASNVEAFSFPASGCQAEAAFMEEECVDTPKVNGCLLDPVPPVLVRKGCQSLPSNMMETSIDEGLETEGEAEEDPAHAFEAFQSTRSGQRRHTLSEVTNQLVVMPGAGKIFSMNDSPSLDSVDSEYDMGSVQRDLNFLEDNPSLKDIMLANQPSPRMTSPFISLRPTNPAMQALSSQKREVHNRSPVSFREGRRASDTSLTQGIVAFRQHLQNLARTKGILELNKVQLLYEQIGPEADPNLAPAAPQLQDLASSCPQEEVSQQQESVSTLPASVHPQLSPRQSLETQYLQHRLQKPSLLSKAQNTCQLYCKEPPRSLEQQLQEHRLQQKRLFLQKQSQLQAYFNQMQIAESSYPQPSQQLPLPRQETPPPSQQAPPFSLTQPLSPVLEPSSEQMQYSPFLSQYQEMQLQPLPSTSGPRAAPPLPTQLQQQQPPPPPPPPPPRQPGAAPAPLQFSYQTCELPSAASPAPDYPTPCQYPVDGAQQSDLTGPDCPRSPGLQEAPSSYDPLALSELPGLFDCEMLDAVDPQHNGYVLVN

PAK3 = PAK3 (Homo sapiens, UniProt O75914)
Sequence of PAK3 (O75914 whole entry): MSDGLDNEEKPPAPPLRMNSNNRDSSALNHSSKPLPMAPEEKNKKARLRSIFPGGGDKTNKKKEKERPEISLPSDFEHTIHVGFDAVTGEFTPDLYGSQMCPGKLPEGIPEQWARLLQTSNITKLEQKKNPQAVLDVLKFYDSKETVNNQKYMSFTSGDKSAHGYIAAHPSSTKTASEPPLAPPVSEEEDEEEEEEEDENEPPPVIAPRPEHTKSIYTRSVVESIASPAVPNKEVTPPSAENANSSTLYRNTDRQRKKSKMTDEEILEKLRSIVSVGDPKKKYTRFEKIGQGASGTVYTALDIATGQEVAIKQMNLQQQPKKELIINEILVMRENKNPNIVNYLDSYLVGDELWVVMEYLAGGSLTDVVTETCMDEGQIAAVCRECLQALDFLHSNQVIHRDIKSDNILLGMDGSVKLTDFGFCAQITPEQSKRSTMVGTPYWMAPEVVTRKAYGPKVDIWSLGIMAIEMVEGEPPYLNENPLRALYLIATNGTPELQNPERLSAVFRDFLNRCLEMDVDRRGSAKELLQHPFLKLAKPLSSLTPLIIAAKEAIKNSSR

DAPK2 = DAPK2 (Homo sapiens, UniProt Q9UIK4)
Sequence of DAPK2 (Q9UIK4 whole entry): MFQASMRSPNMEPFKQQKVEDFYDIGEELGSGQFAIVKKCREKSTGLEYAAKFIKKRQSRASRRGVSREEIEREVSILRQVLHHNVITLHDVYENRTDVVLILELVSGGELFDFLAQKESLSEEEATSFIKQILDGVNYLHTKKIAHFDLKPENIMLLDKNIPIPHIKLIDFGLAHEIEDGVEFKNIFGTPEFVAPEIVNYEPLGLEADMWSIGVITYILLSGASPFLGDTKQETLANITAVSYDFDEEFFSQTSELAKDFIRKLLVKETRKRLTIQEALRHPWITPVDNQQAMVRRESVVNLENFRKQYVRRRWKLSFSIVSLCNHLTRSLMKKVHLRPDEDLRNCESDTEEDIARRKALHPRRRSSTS

PLK4 = target: T3, PLK4 (Homo sapiens, UniProt O00444)
T3 sequence (O00444 1-970): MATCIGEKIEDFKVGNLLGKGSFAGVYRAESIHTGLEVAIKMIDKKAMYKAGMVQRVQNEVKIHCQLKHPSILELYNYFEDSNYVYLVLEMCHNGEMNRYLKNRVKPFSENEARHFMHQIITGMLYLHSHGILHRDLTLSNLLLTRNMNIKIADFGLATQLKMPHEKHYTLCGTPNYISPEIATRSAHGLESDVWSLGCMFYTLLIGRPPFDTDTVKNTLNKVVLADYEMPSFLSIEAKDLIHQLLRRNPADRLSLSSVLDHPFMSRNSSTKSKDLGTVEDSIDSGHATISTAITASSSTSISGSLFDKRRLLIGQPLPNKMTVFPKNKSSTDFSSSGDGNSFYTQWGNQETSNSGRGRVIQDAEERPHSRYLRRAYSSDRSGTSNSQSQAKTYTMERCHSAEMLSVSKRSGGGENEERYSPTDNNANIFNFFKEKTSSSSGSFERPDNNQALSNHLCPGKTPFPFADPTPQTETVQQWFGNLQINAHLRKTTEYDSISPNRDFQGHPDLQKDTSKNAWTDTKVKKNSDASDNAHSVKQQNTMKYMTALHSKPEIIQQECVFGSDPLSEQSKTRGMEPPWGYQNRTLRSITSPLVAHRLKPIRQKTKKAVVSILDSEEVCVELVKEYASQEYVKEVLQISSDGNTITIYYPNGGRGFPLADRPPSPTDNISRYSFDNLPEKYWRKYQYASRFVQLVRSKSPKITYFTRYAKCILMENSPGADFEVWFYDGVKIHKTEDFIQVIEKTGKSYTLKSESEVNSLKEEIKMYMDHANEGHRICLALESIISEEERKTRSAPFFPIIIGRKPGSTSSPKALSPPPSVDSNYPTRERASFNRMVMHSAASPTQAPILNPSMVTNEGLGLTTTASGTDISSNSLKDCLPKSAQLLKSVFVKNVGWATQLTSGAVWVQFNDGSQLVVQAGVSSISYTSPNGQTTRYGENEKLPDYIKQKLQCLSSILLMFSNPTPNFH

p38-delta = target: T4, p38-delta (Homo sapiens, UniProt O15264)
T4 construct: gene MAPK13
T4 sequence (O15264 1-365): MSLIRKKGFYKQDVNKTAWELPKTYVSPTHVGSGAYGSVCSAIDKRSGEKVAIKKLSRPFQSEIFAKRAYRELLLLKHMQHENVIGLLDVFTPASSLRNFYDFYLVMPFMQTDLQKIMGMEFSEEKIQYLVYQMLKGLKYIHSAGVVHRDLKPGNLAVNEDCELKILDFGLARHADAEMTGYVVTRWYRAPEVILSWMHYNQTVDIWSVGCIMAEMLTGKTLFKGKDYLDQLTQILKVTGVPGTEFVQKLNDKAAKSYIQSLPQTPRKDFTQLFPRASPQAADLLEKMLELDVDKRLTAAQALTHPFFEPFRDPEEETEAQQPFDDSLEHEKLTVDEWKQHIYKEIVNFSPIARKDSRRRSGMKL

[2] = read-out: Olaparib / %Ctrl @ 10000nM
[3] = read-out: Talazoparib (BMN 673) / %Ctrl @ 10000nM
[4] = read-out: Rucaparib / %Ctrl @ 10000nM, binding competition, % of control
[5] = read-out: Niraparib (MK-4827) / %Ctrl @ 10000nM

percent of control binding at 10 µM [1, 2]: 86% | percent of control binding at 10 µM (GSK3A; [2]): 95% | percent of control binding at 10 µM (TXK; [2]): 86% | percent of control binding at 10 µM (MARK3; [2]): 96% | percent of control binding at 10 µM (SIK2; [2]): 100% | percent of control binding at 10 µM (PAK3; [2]): 96% | percent of control binding at 10 µM (DAPK2; [2]): 100% | percent of control binding at 10 µM (PLK4; [2]): 91% | percent of control binding at 10 µM (p38-delta; [2]): 84%
Compound: O=C(c1cc(Cc2n[nH]c(=O)c3ccccc23)ccc1F)N1CCN(C(=O)C2CC2)CC1 [Olaparib]

percent of control binding at 10 µM [1, 3]: 99% | percent of control binding at 10 µM (GSK3A; [3]): 100% | percent of control binding at 10 µM (TXK; [3]): 91% | percent of control binding at 10 µM (MARK3; [3]): 98% | percent of control binding at 10 µM (SIK2; [3]): 100% | percent of control binding at 10 µM (PAK3; [3]): 100% | percent of control binding at 10 µM (DAPK2; [3]): 95% | percent of control binding at 10 µM (PLK4; [3]): 72% | percent of control binding at 10 µM (p38-delta; [3]): 98%
Compound: Cn1ncnc1[C@H]1c2n[nH]c(=O)c3cc(F)cc(c23)N[C@@H]1c1ccc(F)cc1 [Talazoparib]

percent of control binding at 10 µM [1, 4]: 92% | percent of control binding at 10 µM (GSK3A; [4]): 21% | percent of control binding at 10 µM (TXK; [4]): 100% | percent of control binding at 10 µM (MARK3; [4]): 100% | percent of control binding at 10 µM (SIK2; [4]): 96% | percent of control binding at 10 µM (PAK3; [4]): 95% | percent of control binding at 10 µM (DAPK2; [4]): 37% | percent of control binding at 10 µM (PLK4; [4]): 99% | percent of control binding at 10 µM (p38-delta; [4]): 100%
Compound: CNCc1ccc(-c2[nH]c3cc(F)cc4c3c2CCNC4=O)cc1 [Rucaparib]

Compound: NC(=O)c1cccc2cn(-c3ccc([C@@H]4CCCNC4)cc3)nc12 [Niraparib]
percent of control binding at 10 µM [1, 5]: 89% | percent of control binding at 10 µM (GSK3A; [5]): 48% | percent of control binding at 10 µM (TXK; [5]): 86% | percent of control binding at 10 µM (MARK3; [5]): 91% | percent of control binding at 10 µM (SIK2; [5]): 91% | percent of control binding at 10 µM (PAK3; [5]): 67% | percent of control binding at 10 µM (DAPK2; [5]): 81% | percent of control binding at 10 µM (PLK4; [5]): 56% | percent of control binding at 10 µM (p38-delta; [5]): 82%
